Biological target: T1, NoCAR (Nocardia otitidiscaviarum, UniProt A0A378YSF8)
T1 construct: gene lgrD_6; pETDuet, T7 promoter, co-expressed with E. coli pyrophosphatase (EcPPase, no chain) in E. coli K12 MG1655 RARE; whole cells; CAR class approx. 130 kDa
T1 sequence (A0A378YSF8 1-1156): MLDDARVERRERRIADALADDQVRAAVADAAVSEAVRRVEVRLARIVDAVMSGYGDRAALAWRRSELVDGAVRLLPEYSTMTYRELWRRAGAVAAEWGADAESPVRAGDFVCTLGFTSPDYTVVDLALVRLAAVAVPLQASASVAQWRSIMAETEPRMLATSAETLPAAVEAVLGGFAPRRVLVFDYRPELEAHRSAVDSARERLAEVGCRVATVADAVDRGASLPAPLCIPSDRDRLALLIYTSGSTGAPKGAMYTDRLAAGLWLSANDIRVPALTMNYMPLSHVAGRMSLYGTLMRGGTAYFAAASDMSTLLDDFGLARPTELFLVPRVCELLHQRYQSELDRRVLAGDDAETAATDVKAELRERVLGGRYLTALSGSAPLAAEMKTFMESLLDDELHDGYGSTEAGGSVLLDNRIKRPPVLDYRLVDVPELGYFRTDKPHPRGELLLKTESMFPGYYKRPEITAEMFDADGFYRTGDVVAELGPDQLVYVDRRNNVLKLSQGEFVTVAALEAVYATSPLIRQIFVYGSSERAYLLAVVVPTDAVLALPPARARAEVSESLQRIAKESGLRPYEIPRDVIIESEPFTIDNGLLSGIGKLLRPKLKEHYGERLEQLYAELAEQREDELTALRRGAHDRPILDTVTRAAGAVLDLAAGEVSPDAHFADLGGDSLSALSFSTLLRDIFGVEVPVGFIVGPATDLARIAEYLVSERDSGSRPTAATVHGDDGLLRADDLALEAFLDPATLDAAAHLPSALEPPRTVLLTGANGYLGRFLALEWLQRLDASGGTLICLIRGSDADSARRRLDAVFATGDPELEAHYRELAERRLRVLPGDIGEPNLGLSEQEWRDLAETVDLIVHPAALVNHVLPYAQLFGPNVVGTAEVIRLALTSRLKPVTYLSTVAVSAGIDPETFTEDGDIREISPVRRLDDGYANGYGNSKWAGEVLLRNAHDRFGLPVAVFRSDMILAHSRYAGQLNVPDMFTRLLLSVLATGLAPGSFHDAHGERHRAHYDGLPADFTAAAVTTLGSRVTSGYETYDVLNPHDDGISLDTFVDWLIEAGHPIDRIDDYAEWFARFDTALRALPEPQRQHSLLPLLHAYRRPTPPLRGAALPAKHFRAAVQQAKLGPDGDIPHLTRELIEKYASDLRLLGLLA
Experiment: whole-cell biotransformation, ABAO assay of 3-hydroxybenzaldehyde at […] nm
Format: cell-based
Settings: 2.5 mM substrate in PBS / minimal medium with glucose, growing E. coli cells, 35 °C; no added cofactor

SMILES: O=C(O)c1cccc(O)c1 [3-hydroxybenzoic acid]
- whole-cell biotransformation, ABAO assay of 3-hydroxybenzaldehyde at 360 nm: The biotransformation consists of the conversion of 3-hydroxybenzoic acid to 3-hydroxybenzaldehyde
